Where two headings read alike, the source gives them in different places.
Key:
[1] = system: human platelet rich plasma (PRP), collagen-induced platelet aggregation; assay: Collagen-induced platelet aggregation in human platelet rich plasma (Born turbidimetric method); assay type: cell-based; details: inducer collagen (5 µM); for IC50: Platelet, read-out: Antiplatelet aggregation activity, IC50, Collagen
Experimental: (§1) The in vitro antiplatelet activity of the derivatives was evaluated using human platelet rich plasma (PRP)on an APACT 4004 aggregometerby Born’s reported turbidimetric method([16]). ADP (5 µM), arachidonic acid (1.25 mg/mL) and collagen (5 µM) were used as inducers of platelet aggregation. IC50 was defined as the concentration of the test compound that inhibits the platelet aggregation by 50%. The detailed procedure has been described in our previous works([11],[12],[17]).

[2] = Cytotoxicity assay, MTT method; assay type: cell-based; details: mouse, fibroblast L929 cell line, 24 h of exposure
Experimental: (§2) The synthesized derivatives were assayed for their toxicity on Fibroblast L929 cell line by MTT [[…]] method. The compounds were initially screened at 100 µM concentration and IC50 was calculated for those showing more than 50% toxicity. The detailed procedure has been described in our previous work([18]).

[3] = system: Fibroblast L929 cell line; assay: Cytotoxicity assay, MTT method; assay type: cell-based; details: 24 h of exposure
Experimental: as §2

[4] = system: human platelet rich plasma (PRP), arachidonic acid-induced platelet aggregation; set-up: method as in PMID 23154304; details: inducer arachidonic acid, obtained in previous study, read-out: Antiplatelet aggregation activity, IC50, AA; cited from earlier work
[5] = system: human platelet rich plasma (PRP), ADP-induced platelet aggregation; set-up: method as in PMID 23154304; details: inducer ADP, obtained in previous study, read-out: Antiplatelet aggregation activity, IC50, ADP; cited from earlier work
[6] = system: human platelet rich plasma (PRP), arachidonic acid-induced platelet aggregation; assay: Arachidonic acid-induced platelet aggregation in human platelet rich plasma (Born turbidimetric method); assay type: cell-based; details: inducer arachidonic acid 1.25 mg/mL; for IC50: Platelet, read-out: Antiplatelet aggregation activity, IC50, AA
Experimental: as §1

[7] = system: human platelet rich plasma (PRP), ADP-induced platelet aggregation; assay: ADP-induced platelet aggregation in human platelet rich plasma (Born turbidimetric method); assay type: cell-based; details: inducer ADP 5 µM, read-out: Antiplatelet aggregation activity, IC50, ADP
Experimental: as §1

In the case of `C(=NNc1ccccc1)c1c[nH]c2ccccc12` [1a, indole-3-carboxaldehyde phenylhydrazone], the IC50 [1] is reported as 38.8 µM, the “Antiplatelet aggregation activity, IC50, Collagen” value [1] is reported as “moderate activity” and the IC50 at 24 h ([2]; L929 fibroblast cells) is reported as over 100 µM. The “Cytotoxicity, IC50” value [3] was “not toxic to fibroblast cells”, the IC50 [4] was 10 µM and the IC50 [5] was over 100 µM.

Work on `Fc1ccc(N/N=C/c2c[nH]c3ccccc23)cc1` [1b] yielded an IC50 [6] of 28.8 µM, an IC50 [7] of over 100 µM and an IC50 [1] of over 100 µM. For the same compound, the IC50 at 24 h ([2]; L929 fibroblast cells) was over 100 µM and the “Cytotoxicity, IC50” value [3] was “not toxic to fibroblast cells”.

In the case of `Clc1ccccc1NN=Cc1c[nH]c2ccccc12` [1c, Indole-3-carboxaldehyde 2-chlorophenylhydrazone], the IC50 [6] is reported as 14.6 µM, the “Antiplatelet aggregation activity, IC50, AA” value [6] is reported as “still acceptable” and the IC50 [7] is reported as over 100 µM. For the same compound, the IC50 [1] was 85.6 µM and the IC50 at 24 h ([2]; L929 fibroblast cells) was 45.9 µM.

Compound `Clc1cccc(NN=Cc2c[nH]c3ccccc23)c1` [1d, Indole-3-carboxaldehyde 3-chlorophenylhydrazone] has an IC50 [6] of 28.1 µM, an IC50 [7] of over 100 µM and an IC50 [1] of over 100 µM. The IC50 at 24 h [2] was 33.9 µM and the melting point was 211 to 214 °C.

Compound `Clc1ccc(N/N=C/c2c[nH]c3ccccc23)cc1` [1e] has an IC50 [6] of 22.5 µM, an IC50 [7] of over 100 µM and an IC50 [1] of 62.5 µM. The “Antiplatelet aggregation activity, IC50, Collagen” value [1] was “moderate activity” and the IC50 at 24 h [2] was 66.7 µM.

With `Brc1ccc(N/N=C/c2c[nH]c3ccccc23)cc1` [1f] the IC50 [6] was 21.2 µM, the “Antiplatelet aggregation activity, IC50, AA” value [6] was “still acceptable” and the IC50 [7] was 100 µM. It also gave an IC50 [1] of over 100 µM and an IC50 at 24 h ([2]; L929 fibroblast cells) of 59.8 µM.

With `Cc1ccccc1NN=Cc1c[nH]c2ccccc12` [1g, Indole-3-carboxaldehyde 2-methylphenylhydrazone] the IC50 [6] was 56.8 µM, the IC50 [7] was over 100 µM and the IC50 [1] was 75.2 µM. The “Antiplatelet aggregation activity, IC50, Collagen” value [1] was “moderate activity”, the IC50 at 24 h ([2]; L929 fibroblast cells) was 85.1 µM and the melting point was 176 to 178 °C.

In the case of `Cc1ccc(NN=Cc2c[nH]c3ccccc23)cc1` [1h, Indole-3-carboxaldehyde 4-methylphenylhydrazone], the IC50 [6] is reported as 57.2 µM, the IC50 [7] is reported as over 100 µM and the IC50 [1] is reported as over 100 µM. For the same compound, the IC50 at 24 h ([2]; L929 fibroblast cells) was over 100 µM and the “Cytotoxicity, IC50” value [3] was “not toxic to fibroblast cells”.

Work on `COc1ccc(NN=Cc2c[nH]c3ccccc23)cc1` [1i, Indole-3-carboxaldehyde 4-methoxyphenylhydrazone] yielded an IC50 [6] of 7.13 µM, an IC50 [7] of over 100 µM and an IC50 [1] of over 100 µM. For the same compound, the IC50 at 24 h ([2]; L929 fibroblast cells) was 74.5 µM.

With `O=C(NN=Cc1c[nH]c2ccccc12)c1ccccc1` [2a, Indole-3-carboxaldehyde benzoylhydrazone] the IC50 [6] was over 100 µM, the IC50 [7] was over 100 µM and the IC50 [1] was over 100 µM. It also gave an IC50 at 24 h ([2]; L929 fibroblast cells) of over 100 µM and a melting point of 238 to 241 °C.

Work on `O=C(NN=Cc1c[nH]c2ccccc12)c1cccc(Cl)c1` [2b, Indole-3-carboxaldehyde 3-chlorobenzoylhydrazone] yielded an IC50 [6] of over 100 µM, an IC50 [7] of over 100 µM and an IC50 [1] of over 100 µM. For the same compound, the IC50 at 24 h ([2]; L929 fibroblast cells) was over 100 µM and the melting point was 215 to 218 °C.

Work on `O=C(NN=Cc1c[nH]c2ccccc12)c1ccc(Cl)cc1` [2c, Indole-3-carboxaldehyde 4-chlorobenzoylhydrazone] yielded an IC50 [6] of over 100 µM, an IC50 [7] of over 100 µM and an IC50 [1] of over 100 µM. The IC50 at 24 h ([2]; L929 fibroblast cells) was over 100 µM.

Compound `O=C(NN=Cc1c[nH]c2ccccc12)c1ccc([N+](=O)[O-])cc1` [2d, Indole-3-carboxaldehyde 4-nitrobenzoylhydrazone] has an IC50 [6] of over 100 µM, an IC50 [7] of over 100 µM and an IC50 [1] of over 100 µM. It also gave an IC50 at 24 h ([2]; L929 fibroblast cells) of over 100 µM and a melting point of 250 to 253 °C.

For `Cc1cccc(C(=O)NN=Cc2c[nH]c3ccccc23)c1` [2e, Indole-3-carboxaldehyde 3-methylbenzoylhydrazone], the IC50 [6] was over 100 µM, the IC50 [7] was over 100 µM and the IC50 [1] was over 100 µM. It also gave an IC50 at 24 h ([2]; L929 fibroblast cells) of over 100 µM and a melting point of 212 to 214 °C.

In the case of `Cc1ccc(C(=O)NN=Cc2c[nH]c3ccccc23)cc1` [2f, Indole-3-carboxaldehyde 4-methylbenzoylhydrazone], the IC50 [6] is reported as over 100 µM, the IC50 [7] is reported as over 100 µM and the IC50 [1] is reported as over 100 µM. For the same compound, the IC50 at 24 h ([2]; L929 fibroblast cells) was over 100 µM and the melting point was over 270 °C.

For `O=C(N/N=C/c1c[nH]c2ccccc12)c1ccncc1` [2g], the IC50 [1] is listed as over 100 µM, the IC50 at 24 h ([2]; L929 fibroblast cells) is listed as over 100 µM and the IC50 [4] is listed as over 100 µM. The IC50 [5] was over 100 µM.

`O=C(N/N=C/c1c[nH]c2ccc(Cl)cc12)c1ccccc1` [3a] showed an IC50 [6] of over 100 µM, an IC50 [7] of over 100 µM and an IC50 [1] of over 100 µM. For the same compound, the IC50 at 24 h ([2]; L929 fibroblast cells) was over 100 µM.

Compound `O=C(NN=Cc1c[nH]c2ccc(Cl)cc12)c1cccc(Cl)c1` [3b, 5-Chloroindole-3-carboxaldehyde 3-chlorobenzoylhydrazone] has an IC50 [6] of over 100 µM, an IC50 [7] of over 100 µM and an IC50 [1] of over 100 µM. The IC50 at 24 h ([2]; L929 fibroblast cells) was 55.5 µM and the melting point was 230 to 233 °C.

Compound `O=C(N/N=C/c1c[nH]c2ccc(Cl)cc12)c1ccc(Cl)cc1` [3c] has an IC50 [6] of over 100 µM, an IC50 [7] of over 100 µM and an IC50 [1] of over 100 µM. It also gave an IC50 at 24 h ([2]; L929 fibroblast cells) of 71.3 µM.

With `O=C(NN=Cc1c[nH]c2ccc(Cl)cc12)c1ccc([N+](=O)[O-])cc1` [3d, 5-Chloroindole-3-carboxaldehyde 4-nitrobenzoylhydrazone] the IC50 [6] was over 100 µM, the IC50 [7] was over 100 µM and the IC50 [1] was over 100 µM. The IC50 at 24 h ([2]; L929 fibroblast cells) was over 100 µM and the melting point was over 270 °C.

Compound `Cc1cccc(C(=O)NN=Cc2c[nH]c3ccc(Cl)cc23)c1` [3e, 5-Chloroindole-3-carboxaldehyde 3-methylbenzoylhydrazone] has an IC50 [6] of over 100 µM, an IC50 [7] of over 100 µM and an IC50 [1] of over 100 µM. It also gave an IC50 at 24 h ([2]; L929 fibroblast cells) of 49.6 µM and a melting point of 226 to 228 °C.

`Cc1ccc(C(=O)NN=Cc2c[nH]c3ccc(Cl)cc23)cc1` [3f, 5-Chloroindole-3-carboxaldehyde 4-methylbenzoylhydrazone] showed an IC50 [6] of over 100 µM, an IC50 [7] of over 100 µM and an IC50 [1] of over 100 µM. For the same compound, the IC50 at 24 h ([2]; L929 fibroblast cells) was 62.7 µM and the melting point was 244 °C (dec.).

For `O=C(NN=Cc1c[nH]c2ccc(Cl)cc12)c1ccncc1` [3g, 5-Chloroindole-3-carboxaldehyde isonicotinoylhydrazone], the IC50 [6] was over 100 µM, the IC50 [7] was over 100 µM and the IC50 [1] was over 100 µM. For the same compound, the IC50 at 24 h ([2]; L929 fibroblast cells) was over 100 µM and the melting point was over 270 °C.

`CC(=O)Oc1ccccc1C(=O)O` [Aspirin, reference compound] gave an IC50 [6] of 30.3 µM, an IC50 [7] of over 100 µM and an IC50 [1] of 9.7 µM.

With `COc1ccc2c(c1)c(CC(=O)O)c(C)n2C(=O)c1ccc(Cl)cc1` [Indometacin, reference compound] the IC50 [6] was 3 µM, the IC50 [7] was over 100 µM and the IC50 [1] was 1.5 µM.

Reference: article PMC4673935, “Synthesis, Antiplatelet Activity and Cytotoxicity Assessment of Indole-Based Hydrazone Derivatives” (Iranian Journal of Pharmaceutical Research : IJPR, 2015)
